Assays:
Wistar rats [1] = assay: Subacute toxicity: water and electrolyte balance (osmolality, sodium, potassium, urinary flow); assay type: in vivo; conditions: for Filtered Load of Potassium / Filtered Load of Sodium / Fractional Excretion of Potassium / Fractional Excretion of Sodium / Serum Osmolality / Serum Potassium / Serum Sodium / U/S Osm ratio / Urinary Flow Rate / Urinary Potassium Excretion / Urinary Sodium Excretion: rats, p.o., 14 days at 10% of LD50 (CCl4, APAP: once daily, 3 days), mean ± SEM, n = 6
Experimental: (§1) For toxicity tests, acclimatized rats were randomly allocated to 12 groups (n = 12 for the control and n = 6 for the rest groups). […] Meanwhile, the aforementioned vehicles (dose volume 2 mL/kg b.w.) were administered to 3 groups. […] The animals were then housed in individual metabolic cages to collect urine for a period of 6 h and then the volume was recorded. Afterward, blood samples were obtained and the serum was separated by centrifugation at 1,620 × g for 10 min at room temperature.
Osmolality of serum and urine were assessed (in triplicate) by using a vapor pressure osmometer (Wescor 5500, Logan, United States). U/S ratio as well as osmolar (COsm) and free water clearances were calculated via conventional equations:where UOsm and SOsm are the osmolality values (mOsm/Kg) in urine and serum, respectively, and φ is the UFR (mL/min).
(§2) The levels of sodium and potassium were measured in urine and serum using a flame photometer (Corning 400, Medfield, United States). Calculation was made of the clearance, fractional excretion, and filtered load of sodium (FLS), filtered load of potassium (FLP), and filtered load of glucose (FLG) using the conventional equations:where CX is the clearance rate of X (mL/min), CCr is the creatinine clearance rate (mL/min), UX and SX are the […] concentrations of X, respectively, φ is the UFR (mL/min), FEX is the fractional excretion (%) of X, and FLX is the filtered load of X in μEq/min (Na^+ or K^+) or mg/min (glucose).

Wistar rats [2] = assay: Subacute toxicity: serum and urine glucose, urinary protein excretion; assay type: in vivo; conditions: for Filtered Load of Glucose / Fractional Excretion of Glucose / Serum Glucose / Urinary Glucose Excretion / Urinary Protein Excretion: rats, p.o., 14 days at 10% of LD50 (CCl4, APAP: once daily, 3 days), mean ± SEM, n = 6
Experimental: as §1
Serum and urine glucose concentration were calculated using GOD-PAP kits (RANDOX, Laboratories Ltd, UK). Urinary protein was quantified using the Bradford method.[29]
(§3) Serum and urinary creatinine were determined by the Jaffe method. With this value, evaluation was made of the fractional excretion of sodium (FES), fractional excretion of potassium (FEP), and fractional excretion of glucose.[30]^,[31] The GFR was calculated from clearance of endogenous creatinine using the conventional equation:where GFR (CCr) is the creatinine clearance rate (mL/min); UCr and SCr are the creatinine concentrations (mg/dL) in urine and serum, respectively; and φ is the urinary flow rate (UFR) (mL/min). To avoid the error from the tubular secretion of creatinine found in males, only female animals were used.
as §2

Wistar rats [3] = assay: Subacute toxicity: glomerular filtration rate (creatinine clearance) and serum creatinine; assay type: in vivo; conditions: for GFR, change in words: in comparison to the control group; for Glomerular Filtration Rate / Serum Creatinine: rats, p.o., 14 days at 10% of LD50 (CCl4, APAP: once daily, 3 days), mean ± SEM, n = 6
Experimental: as §1, §3

Wistar rats [4] = assay: Hepatic and renal reactive oxygen species (DCF formation); assay type: in vivo; conditions: rats, p.o., 14 days at 10% of LD50 (CCl4, APAP: once daily, 3 days), mean ± SEM, n = 6; for Renal ROS: kidney; for Hepatic ROS: liver
Experimental: (§4) For toxicity tests, acclimatized rats were randomly allocated to 12 groups (n = 12 for the control and n = 6 for the rest groups). […] Meanwhile, the aforementioned vehicles (dose volume 2 mL/kg b.w.) were administered to 3 groups. […] Upon completion of the 14-day treatments and before sample collection, the bladders of animals were emptied by gentle pressure on the lower part of the abdomen to induce urination. The animals were then housed in individual metabolic cages to collect urine for a period of 6 h and then the volume was recorded. Afterward, blood samples were obtained and the serum was separated by centrifugation at 1,620 × g for 10 min at room temperature.
Reactive oxygen species (ROS) were measured by formation of 2′,7′-dichlorofluorescein (DCF). An aliquot of 10 μL (kidney) or 5 μL (liver) of the homogenates was added to 1,940 or 1,945 μL of TRIS:HEPES (18:1) and was incubated in the presence of 50 μL of 2′,7′-dichlorofluorescein diacetate for 1 h at 37 °C. In order to quench the reaction, the mixture was chilled using an ice bath. The fluorescence was measured using a Shimadzu fluorometer (Japan; λex = 488 nm; λem = 525 nm). The results were expressed as nM DCF formed per mg protein/h.[33]
(§5) The protein concentration in homogenates was measured by the Bradford method.[29]

NIH mice = assay: Acute oral toxicity, median lethal dose (LD50); assay type: in vivo; conditions: for Category (GHS acute oral toxicity hazard category) / Hazard statement (GHS): based on oral LD50, according to GHS [39]; for Oral LD50: female NIH mice, single oral dose, 14 days observation
Experimental: All treatments were administrated orally (p.o.) according to the scheme mentioned below.
Acute toxicity tests were performed in order to measure the median lethal dose (LD50). After acclimatization, mice were randomly allocated to ten groups (n = 4), including the control group (e.g. water, Tween 80, or PO) and the experimental groups, each with a single dose of one of the IMPYs at 4 levels of dose (0.5, 1.0, 2.0, and 4.0 g/kg b.w.).
Animals were food deprived overnight prior to administration of the chemical compounds or vehicles, and food was returned 4 h after dosing. Animals had access to water ad libitum throughout the study.[27]^,[28]

Wistar rats [5] = assay: Hepatic and renal lipid peroxidation (lipid-soluble fluorescence); assay type: in vivo; conditions: rats, p.o., 14 days at 10% of LD50 (CCl4, APAP: once daily, 3 days), mean ± SEM, n = 6; for Renal Lipoperoxidation: kidney; for Hepatic Lipoperoxidation: liver
Experimental: as §4
Lipid peroxidation (LPO) was evaluated by the formation of lipid-soluble fluorescence, as previously described. Briefly, kidney and liver tissues were homogenized in 3 and 5 mL of phosphate buffer (0.2 M, pH = 7.4), respectively. A volume of 1 mL (kidney) or 0.8 mL (liver) of the homogenates was added to 7 mL of chloroform-methanol (2:1, v/v), and after 15 s of vortex mixing, the resulting mixture was cooled using an ice bath for 30 min to allow for phase separation. The fluorescence of the organic phase was measured using a Shimadzu fluorometer (Japan; λex = 370 nm; λem = 430 nm), whose sensitivity was adjusted to 140 fluorescence units by using 1 μg/mL of quinine sulfate in 50 mM H2SO4. The results were expressed as relative fluorescence units per milligram of protein.[33]
as §5

[6] = system: renal secretory pathway of organic anions; assay: Active tubular secretion of organic acids (PAH uptake in kidney cortex slices); assay type: in vivo, rats; conditions: kidney cortex slices, PAH 1 mM, 1 h, 25 °C; rats, p.o., 14 days at 10% of LD50 (CCl4, APAP: once daily, 3 days); mean ± SEM, n = 6
Experimental: as §4
p-Aminohippuric acid (PAH) was used as an indicator of the renal secretory pathway of organic anions. Kidneys were extracted and immediately submerged in Ringer solution (pH = 7.4 and mOsm = 290 ± 10 mOsm/kg) under constant bubbling with O2/CO2 (95/5%). The kidneys were decapsulated and slices of the kidney cortex were obtained, which were then incubated in Ringer solution containing PAH (1 mM) for 1 h at 25 °C under constant bubbling with O2/CO2 (95/5%). The levels of PAH were quantified with the Bratton-Marshall method and results were expressed as the PAH tissue/medium ratio (PAH t/m ratio).[31]^,[32]

Wistar rats [7] = assay: Subacute toxicity: serum alanine aminotransferase and alkaline phosphatase activity; assay type: in vivo; conditions: serum; rats, p.o., 14 days at 10% of LD50 (CCl4, APAP: once daily, 3 days); mean ± SEM, n = 6
Experimental: as §4
The activities of serum alanine aminotransferase (ALT) and alkaline phosphatase (ALP) were measured with standard kits (RANDOX, Laboratories Ltd, UK).

## CCOC(=O)c1cn2ccccc2n1 [Compound 1a, ethyl imidazo[1,2-a]pyridine-2-carboxylate]
Wistar rats [1]
  Filtered Load of Potassium: 2.69 ± 1.19 µEq/min
  Filtered Load of Sodium: 64.29 ± 26.43 µEq/min
  Fractional Excretion of Potassium: 22.26 ± 6.39%
  Fractional Excretion of Sodium: 0.74 ± 0.22%
  Serum Osmolality: 293.75 ± 1.88 mOsm/kg
  Serum Potassium: 6.57 ± 0.32 mEq/L
  Serum Sodium: 162.39 ± 5.03 mEq/L
  U/S Osm ratio: 3.02 ± 0.25
  Urinary Flow Rate: 4.17 ± 1.25 µL/min
  Urinary Potassium Excretion: 0.34 ± 0.06 µEq/min
  Urinary Sodium Excretion: 0.29 ± 0.08 µEq/min
Wistar rats [2]; compared to control values
  FLG (filtered load of glucose), change in words: reduced
Wistar rats [2]
  Filtered Load of Glucose: 0.39 ± 0.17 mg/min
  Fractional Excretion of Glucose: 0.04 ± 0.01%
  Serum Glucose: 112.39 ± 4.92 mg/dL
  Urinary Glucose Excretion: 96.54 ± 29.03 ng/min
  Urinary Protein Excretion: 0.56 ± 0.10 µg/min
Wistar rats [3]
  GFR, change in words: lower
  Glomerular Filtration Rate: 0.34 ± 0.14 mL/min
  Serum Creatinine: 0.80 ± 0.14 mg/dL
Wistar rats [4]
  Renal ROS: 161.18 ± 27.84 nM de DCF/mg protein/h
  Hepatic ROS: 317.94 ± 25.65 nM de DCF/mg protein/h
NIH mice
  Category (GHS acute oral toxicity hazard category): 5
  Hazard statement (GHS): May be harmful if swallowed
  Oral LD50: 3.175 g/kg b.w.
Wistar rats [5]
  Renal Lipoperoxidation: 0.28 ± 0.03 URF/mg protein
  Hepatic Lipoperoxidation: 0.75 ± 0.04 URF/mg protein
[6]
  PAH t/m ratio: 2.51 ± 0.13
Wistar rats [7]
  Alanine Aminotransferase: 22.22 ± 1.69 U/L
  Alkaline Phosphatase: 93.14 ± 11.91 U/L

## O=C(O)c1cn2ccccc2n1 [Compound 3a, imidazo[1,2-a]pyridine-2-carboxylic acid]
Wistar rats [1]; compared to the control group
  osmolar clearance, change in words: lower
Wistar rats [1]; compared to the control group, significant by PLS VIP and ANOVA
  freewater clearance, change in words: greater
Wistar rats [1]; in comparison with the control group
  FLS (filtered load of sodium), change in words: decreased
Wistar rats [1]
  Filtered Load of Potassium: 1.98 ± 0.44 µEq/min
  Filtered Load of Sodium: 40.07 ± 7.62 µEq/min
  Fractional Excretion of Potassium: 27.89 ± 6.73%
  Fractional Excretion of Sodium: 0.53 ± 0.16%
  Serum Osmolality: 304.73 ± 1.82 mOsm/kg
  Serum Potassium: 6.83 ± 0.54 mEq/L
  Serum Sodium: 148.12 ± 3.02 mEq/L
  U/S Osm ratio: 3.18 ± 0.61
  Urinary Flow Rate: 2.20 ± 0.50 µL/min
  Urinary Potassium Excretion: 0.50 ± 0.12 µEq/min
  Urinary Sodium Excretion: 0.17 ± 0.05 µEq/min
Wistar rats [2]; compared to control values
  FEG (fractional excretion of glucose), change in words: increased
  FLG (filtered load of glucose), change in words: reduced
Wistar rats [2]
  Filtered Load of Glucose: 0.22 ± 0.03 mg/min
  Fractional Excretion of Glucose: 0.05 ± 0.01%
  Serum Glucose: 80.56 ± 2.31 mg/dL
  Urinary Glucose Excretion: 92.91 ± 12.35 ng/min
  Urinary Protein Excretion: 0.69 ± 0.14 µg/min
Wistar rats [3]
  GFR, change in words: lower
  Glomerular Filtration Rate: 0.28 ± 0.04 mL/min
  Serum Creatinine: 1.05 ± 0.05 mg/dL
Wistar rats [4]
  Renal ROS: 159.65 ± 14.96 nM de DCF/mg protein/h
  Hepatic ROS: 349.63 ± 18.87 nM de DCF/mg protein/h
NIH mice
  Category (GHS acute oral toxicity hazard category): 5
  Hazard statement (GHS): May be harmful if swallowed
  Oral LD50: > 2.000 g/kg b.w.
Wistar rats [5]
  Renal Lipoperoxidation: 0.29 ± 0.03 URF/mg protein
  Hepatic Lipoperoxidation: 0.79 ± 0.03 URF/mg protein
[6]
  PAH t/m ratio: 2.25 ± 0.10
Wistar rats [7]
  Alanine Aminotransferase: 25.62 ± 1.27 U/L
  Alkaline Phosphatase: 93.76 ± 13.08 U/L

Reference: publication PMC9618103, “Exploratory toxicology studies of 2,3-substituted imidazo[1,2-a]pyridines with antiparasitic and anti-inflammatory properties” (Toxicology Research, 2022)
